Numbers after ± are expanded uncertainties.
How the values were obtained:
[1] = refractive index (Na D-line) (dimensionless); conditions: 101.33 kPa, Liquid, Standard Abbe refractometry
[2] = 101 kPa, Liquid, Vibrating tube method
[3] = xn = mol fraction of the nth substance listed; conditions: 101 kPa, Liquid, Vibrating tube method, x2 = 0
[4] = refractive index (Na D-line) (dimensionless); xn = mol fraction of the nth substance listed; conditions: 101 kPa, Liquid, Standard Abbe refractometry, x2 = 0

Row | SMILES | refractive index ([1]; 288.15 K) | refractive index ([1]; 293.15 K) | refractive index ([1]; 298.15 K) | refractive index ([1]; 303.15 K) | mass density ([3]; 288.15 K) | mass density ([3]; 293.15 K) | mass density ([3]; 298.15 K) | mass density ([3]; 303.15 K) | mass density ([3]; 308.15 K) | mass density ([3]; 313.15 K) | mass density ([3]; 318.15 K) | mass density ([3]; 323.15 K) | refractive index ([4]; 288.15 K) | refractive index ([4]; 293.15 K) | refractive index ([4]; 298.15 K) | refractive index ([4]; 303.15 K) | refractive index ([4]; 308.15 K) | refractive index ([4]; 313.15 K) | refractive index ([4]; 318.15 K) | refractive index ([4]; 323.15 K) | further results
1 | CCCCO [butan-1-ol] | 1.40135 ± 0.00036 | 1.39932 ± 0.00036 | 1.3973 ± 0.00036 | 1.39523 ± 0.00036 | – | – | – | – | – | – | – | – | – | – | – | – | – | – | – | – | refractive index ([1]; 308.15 K): 1.39318 ± 0.00036; refractive index ([1]; 313.15 K): 1.3911 ± 0.00036; refractive index ([1]; 318.15 K): 1.38901 ± 0.00036; refractive index ([1]; 323.15 K): 1.38688 ± 0.00036; mass density ([2]; 288.15 K): 813.373 ± 0.14 kg/m3; mass density ([2]; 293.15 K): 809.573 ± 0.14 kg/m3; mass density ([2]; 298.15 K): 805.762 ± 0.15 kg/m3; mass density ([2]; 303.15 K): 801.923 ± 0.15 kg/m3; mass density ([2]; 308.15 K): 798.053 ± 0.15 kg/m3; mass density ([2]; 313.15 K): 794.147 ± 0.15 kg/m3; mass density ([2]; 318.15 K): 790.231 ± 0.15 kg/m3; mass density ([2]; 323.15 K): 786.238 ± 0.15 kg/m3
2 | CCCCO [butan-1-ol] + COC(=O)CCCCC(=O)OC | – | – | – | – | 813.373 ± 0.14 kg/m3 | 809.573 ± 0.14 kg/m3 | 805.762 ± 0.15 kg/m3 | 801.923 ± 0.15 kg/m3 | 798.053 ± 0.15 kg/m3 | 794.147 ± 0.15 kg/m3 | 790.231 ± 0.15 kg/m3 | 786.238 ± 0.15 kg/m3 | 1.40135 ± 0.00036 | 1.39932 ± 0.00036 | 1.3973 ± 0.00036 | 1.39523 ± 0.00036 | 1.39318 ± 0.00036 | 1.3911 ± 0.00036 | 1.38901 ± 0.00036 | 1.38688 ± 0.00036 | –
3 | CCCCO [butan-1-ol] + COC(=O)c1ccccc1C(=O)OC | – | – | – | – | 813.373 ± 0.14 kg/m3 | 809.573 ± 0.14 kg/m3 | 805.762 ± 0.15 kg/m3 | 801.923 ± 0.15 kg/m3 | 798.053 ± 0.15 kg/m3 | 794.147 ± 0.15 kg/m3 | 790.231 ± 0.15 kg/m3 | 786.238 ± 0.15 kg/m3 | 1.40135 ± 0.00036 | 1.39932 ± 0.00036 | 1.3973 ± 0.00036 | 1.39523 ± 0.00036 | 1.39318 ± 0.00036 | 1.3911 ± 0.00036 | 1.38901 ± 0.00036 | 1.38688 ± 0.00036 | –
4 | CCC(C)O (stereo unspecified) [butan-2-ol] | 1.39951 ± 0.0004 | 1.39736 ± 0.0004 | 1.39515 ± 0.0004 | 1.39293 ± 0.0004 | – | – | – | – | – | – | – | – | – | – | – | – | – | – | – | – | refractive index ([1]; 308.15 K): 1.39064 ± 0.0004; refractive index ([1]; 313.15 K): 1.38832 ± 0.0004; refractive index ([1]; 318.15 K): 1.38596 ± 0.0004; refractive index ([1]; 323.15 K): 1.38352 ± 0.0004; mass density ([2]; 288.15 K): 810.689 ± 0.24 kg/m3; mass density ([2]; 293.15 K): 806.646 ± 0.24 kg/m3; mass density ([2]; 298.15 K): 802.528 ± 0.24 kg/m3; mass density ([2]; 303.15 K): 798.326 ± 0.24 kg/m3; mass density ([2]; 308.15 K): 794.03 ± 0.24 kg/m3; mass density ([2]; 313.15 K): 789.632 ± 0.24 kg/m3; mass density ([2]; 318.15 K): 785.117 ± 0.24 kg/m3; mass density ([2]; 323.15 K): 780.515 ± 0.24 kg/m3
5 | CCC(C)O (stereo unspecified) [butan-2-ol] + COC(=O)CCCCC(=O)OC | – | – | – | – | 810.689 ± 0.24 kg/m3 | 806.646 ± 0.24 kg/m3 | 802.528 ± 0.24 kg/m3 | 798.326 ± 0.24 kg/m3 | 794.03 ± 0.24 kg/m3 | 789.632 ± 0.24 kg/m3 | 785.117 ± 0.24 kg/m3 | 780.515 ± 0.24 kg/m3 | 1.39951 ± 0.0004 | 1.39736 ± 0.0004 | 1.39515 ± 0.0004 | 1.39293 ± 0.0004 | 1.39064 ± 0.0004 | 1.38832 ± 0.0004 | 1.38596 ± 0.0004 | 1.38352 ± 0.0004 | –
6 | CCC(C)O (stereo unspecified) [butan-2-ol] + COC(=O)c1ccccc1C(=O)OC | – | – | – | – | 810.689 ± 0.24 kg/m3 | 806.646 ± 0.24 kg/m3 | 802.528 ± 0.24 kg/m3 | 798.326 ± 0.24 kg/m3 | 794.03 ± 0.24 kg/m3 | 789.632 ± 0.24 kg/m3 | 785.117 ± 0.24 kg/m3 | 780.515 ± 0.24 kg/m3 | 1.39951 ± 0.0004 | 1.39736 ± 0.0004 | 1.39515 ± 0.0004 | 1.39293 ± 0.0004 | 1.39064 ± 0.0004 | 1.38832 ± 0.0004 | 1.38596 ± 0.0004 | 1.38352 ± 0.0004 | –
7 | CCC(C)=O [butanone] | 1.38153 ± 0.00036 | 1.37892 ± 0.00036 | 1.37631 ± 0.00036 | 1.37366 ± 0.00036 | – | – | – | – | – | – | – | – | – | – | – | – | – | – | – | – | refractive index ([1]; 308.15 K): 1.37102 ± 0.00036; refractive index ([1]; 313.15 K): 1.36834 ± 0.00036; refractive index ([1]; 318.15 K): 1.36565 ± 0.00036; refractive index ([1]; 323.15 K): 1.36294 ± 0.00036; mass density ([2]; 288.15 K): 810.133 ± 0.15 kg/m3; mass density ([2]; 293.15 K): 804.926 ± 0.15 kg/m3; mass density ([2]; 298.15 K): 799.695 ± 0.15 kg/m3; mass density ([2]; 303.15 K): 794.435 ± 0.16 kg/m3; mass density ([2]; 308.15 K): 789.142 ± 0.16 kg/m3; mass density ([2]; 313.15 K): 783.814 ± 0.15 kg/m3; mass density ([2]; 318.15 K): 778.451 ± 0.15 kg/m3; mass density ([2]; 323.15 K): 773.047 ± 0.16 kg/m3
8 | CCC(C)=O [butanone] + COC(=O)CCCCC(=O)OC | – | – | – | – | 810.133 ± 0.15 kg/m3 | 804.926 ± 0.15 kg/m3 | 799.695 ± 0.15 kg/m3 | 794.435 ± 0.16 kg/m3 | 789.142 ± 0.16 kg/m3 | 783.814 ± 0.16 kg/m3 | 778.451 ± 0.16 kg/m3 | 773.047 ± 0.16 kg/m3 | 1.38153 ± 0.00036 | 1.37892 ± 0.00036 | 1.37631 ± 0.00036 | 1.37366 ± 0.00036 | 1.37102 ± 0.00036 | 1.36834 ± 0.00036 | 1.36565 ± 0.00036 | 1.36294 ± 0.00036 | –
9 | CCC(C)=O [butanone] + COC(=O)c1ccccc1C(=O)OC | – | – | – | – | 810.133 ± 0.15 kg/m3 | 804.926 ± 0.15 kg/m3 | 799.695 ± 0.15 kg/m3 | 794.435 ± 0.16 kg/m3 | 789.142 ± 0.16 kg/m3 | 783.814 ± 0.15 kg/m3 | 778.451 ± 0.15 kg/m3 | 773.047 ± 0.16 kg/m3 | 1.38153 ± 0.00036 | 1.37892 ± 0.00036 | 1.37631 ± 0.00036 | 1.37366 ± 0.00036 | 1.37102 ± 0.00036 | 1.36834 ± 0.00036 | 1.36565 ± 0.00036 | 1.36294 ± 0.00036 | –
10 | COC(=O)c1ccccc1C(=O)OC [dimethyl 1,2-benzenedicarboxylate] | 1.51779 ± 0.0004 | 1.51565 ± 0.0004 | 1.51354 ± 0.0004 | 1.51146 ± 0.0004 | – | – | – | – | – | – | – | – | – | – | – | – | – | – | – | – | refractive index ([1]; 308.15 K): 1.50943 ± 0.0004; refractive index ([1]; 313.15 K): 1.50736 ± 0.0004; refractive index ([1]; 318.15 K): 1.50524 ± 0.0004; refractive index ([1]; 323.15 K): 1.5032 ± 0.0004; mass density ([2]; 288.15 K): 1196.26 ± 0.39 kg/m3; mass density ([2]; 293.15 K): 1191.59 ± 0.39 kg/m3; mass density ([2]; 298.15 K): 1186.93 ± 0.39 kg/m3; mass density ([2]; 303.15 K): 1182.28 ± 0.38 kg/m3; mass density ([2]; 308.15 K): 1177.62 ± 0.38 kg/m3; mass density ([2]; 313.15 K): 1172.97 ± 0.37 kg/m3; mass density ([2]; 318.15 K): 1168.32 ± 0.37 kg/m3; mass density ([2]; 323.15 K): 1163.67 ± 0.37 kg/m3
11 | COC(=O)CCCCC(=O)OC [dimethyl 1,6-hexanedioate] | 1.4305 ± 0.0004 | 1.42842 ± 0.0004 | 1.42636 ± 0.0004 | 1.42429 ± 0.0004 | – | – | – | – | – | – | – | – | – | – | – | – | – | – | – | – | refractive index ([1]; 308.15 K): 1.42222 ± 0.0004; refractive index ([1]; 313.15 K): 1.42017 ± 0.0004; refractive index ([1]; 318.15 K): 1.41819 ± 0.0004; refractive index ([1]; 323.15 K): 1.41614 ± 0.0004; mass density ([2]; 288.15 K): 1066.79 ± 0.29 kg/m3; mass density ([2]; 293.15 K): 1061.93 ± 0.28 kg/m3; mass density ([2]; 298.15 K): 1057.06 ± 0.28 kg/m3; mass density ([2]; 303.15 K): 1052.18 ± 0.28 kg/m3; mass density ([2]; 308.15 K): 1047.31 ± 0.27 kg/m3; mass density ([2]; 313.15 K): 1042.43 ± 0.27 kg/m3; mass density ([2]; 318.15 K): 1037.54 ± 0.27 kg/m3; mass density ([2]; 323.15 K): 1032.64 ± 0.26 kg/m3

From the NIST ThermoML archive (doi:10.1016/j.tca.2012.01.013)
